# Experimental data from PubChem BioAssay AID2060495 (Molecular Pharmacology Branch, DTP, NCI, 2025).
# Test system: 521955-158-R2-J5-PDC complex spheroid viability
# Assay: Anticancer human tumor 521955-158-R2-J5-PDC patient-derived pancreatic carcinoma cell line growth inhibition [GQUAD]
# Conditions: for IC50: curve of first compound; for viability, T/C: stronger effect = lower value
# How it was run: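 Tumor cells were grown as complex spheroids with HUVEC endothelial cells and mesenchymal stem cells as stroma. G-quadruplex stabilizers were combined with targeted agents over half-log dilutions from near the clinical Cmax, or from 10 microM.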
# [1] = second compound 0.0316 µM, first compound 0.0316 µM
# [2] = second compound 0.0316 µM, first compound 0.1 µM
# [3] = second compound 0.0316 µM, first compound 0.316 µM
# [4] = second compound 0.0316 µM, first compound 1 µM
# [5] = second compound 0.0316 µM, first compound 3.16 µM
# [6] = second compound 0.0316 µM, first compound 10 µM
# [7] = second compound 0.1 µM, first compound 0.0316 µM
# [8] = second compound 0.1 µM, first compound 0.1 µM
# [9] = second compound 0.1 µM, first compound 0.316 µM
# [10] = second compound 0.1 µM, first compound 1 µM
# [11] = second compound 0.1 µM, first compound 3.16 µM
# [12] = second compound 0.1 µM, first compound 10 µM
# [13] = second compound 0.316 µM, first compound 0.0316 µM
# [14] = second compound 0.316 µM, first compound 0.1 µM
# [15] = second compound 0.316 µM, first compound 0.316 µM
# [16] = second compound 0.316 µM, first compound 1 µM
# [17] = second compound 0.316 µM, first compound 3.16 µM
# [18] = second compound 0.316 µM, first compound 10 µM
# [19] = second compound 1 µM, first compound 0.0316 µM
# [20] = second compound 1 µM, first compound 0.1 µM
# [21] = second compound 1 µM, first compound 0.316 µM
# [22] = second compound 1 µM, first compound 1 µM
# [23] = second compound 1 µM, first compound 3.16 µM
# [24] = second compound 1 µM, first compound 10 µM
# [25] = second compound 3.16 µM, first compound 0.0316 µM
# [26] = second compound 3.16 µM, first compound 0.1 µM
# [27] = second compound 3.16 µM, first compound 0.316 µM
# [28] = second compound 3.16 µM, first compound 1 µM
# [29] = second compound 3.16 µM, first compound 3.16 µM
# [30] = second compound 3.16 µM, first compound 10 µM
# [31] = second compound 10 µM, first compound 0.0316 µM
# [32] = second compound 10 µM, first compound 0.1 µM
# [33] = second compound 10 µM, first compound 0.316 µM
# [34] = second compound 10 µM, first compound 1 µM
# [35] = second compound 10 µM, first compound 3.16 µM
# [36] = second compound 10 µM, first compound 10 µM
# 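Also: spheroids exposed to agents for one week before reading.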
# 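For viability, T/C in this document: 100% = DMSO vehicle control viability.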
smiles,measurement,setting,value
COc1cccc2c1C(=O)c1c(O)c3c(c(O)c1C2=O)CC(O)(C(=O)CO)CC3OC1CC(N)C(O)C(C)O1 (centres undefined) + Cc1cnc(CNC(=O)c2c(=O)c3ccc(N4CCCN(C)CC4)nc3n3c2sc2ccccc23)cn1,IC50,second compound 0.0316 µM,113 nM
same,IC50,second compound 0.1 µM,127 nM
same,IC50,second compound 0.316 µM,< 31.6 nM
same,IC50,second compound 1 µM,< 31.6 nM
same,IC50,second compound 3.16 µM,< 31.6 nM
same,IC50,second compound 10 µM,< 31.6 nM
same,"viability, T/C",[1],78.2%
same,"viability, T/C",[2],48%
same,"viability, T/C",[3],38.4%
same,"viability, T/C",[4],10.9%
same,"viability, T/C",[5],4.19%
same,"viability, T/C",[6],0.5%
same,"viability, T/C",[7],53.3%
same,"viability, T/C",[8],59.6%
same,"viability, T/C",[9],26.3%
same,"viability, T/C",[10],10.6%
same,"viability, T/C",[11],1.38%
same,"viability, T/C",[12],0.74%
same,"viability, T/C",[13],36.3%
same,"viability, T/C",[14],37.1%
same,"viability, T/C",[15],20.9%
same,"viability, T/C",[16],8.92%
same,"viability, T/C",[17],0.18%
same,"viability, T/C",[18],0.39%
same,"viability, T/C",[19],20.7%
same,"viability, T/C",[20],20.1%
same,"viability, T/C",[21],14.5%
same,"viability, T/C",[22],8.17%
same,"viability, T/C",[23],0.08%
same,"viability, T/C",[24],0.07%
same,"viability, T/C",[25],18.5%
same,"viability, T/C",[26],18.4%
same,"viability, T/C",[27],15%
same,"viability, T/C",[28],5.89%
same,"viability, T/C",[29],0.12%
same,"viability, T/C",[30],0.13%
same,"viability, T/C",[31],18.4%
same,"viability, T/C",[32],14.4%
same,"viability, T/C",[33],16.2%
same,"viability, T/C",[34],4.97%
same,"viability, T/C",[35],0.21%
same,"viability, T/C",[36],0.19%
O=C(c1cc(Cc2n[nH]c(=O)c3ccccc23)ccc1F)N1CCN(C(=O)C2CC2)CC1 + CN(C)c1ccc(Nc2c3ccc(NC(=O)CCN4CCCC4)cc3nc3cc(NC(=O)CCN4CCCC4)ccc23)cc1,IC50,second compound 0.0316 µM,> 10000 nM
same,IC50,second compound 0.1 µM,> 10000 nM
same,IC50,second compound 0.316 µM,> 10000 nM
same,IC50,second compound 1 µM,> 10000 nM
same,IC50,second compound 3.16 µM,> 10000 nM
same,IC50,second compound 10 µM,> 10000 nM
same,"viability, T/C",[1],93.1%
same,"viability, T/C",[2],85.2%
same,"viability, T/C",[3],94%
same,"viability, T/C",[4],83.5%
same,"viability, T/C",[5],97.1%
same,"viability, T/C",[6],85.5%
same,"viability, T/C",[7],94.4%
same,"viability, T/C",[8],89.4%
same,"viability, T/C",[9],97.5%
same,"viability, T/C",[10],86.6%
same,"viability, T/C",[11],88.3%
same,"viability, T/C",[12],71.9%
same,"viability, T/C",[13],93%
same,"viability, T/C",[14],90.9%
same,"viability, T/C",[15],91%
same,"viability, T/C",[16],85.4%
same,"viability, T/C",[17],92.6%
same,"viability, T/C",[18],84.1%
same,"viability, T/C",[19],90%
same,"viability, T/C",[20],82.7%
same,"viability, T/C",[21],92.3%
same,"viability, T/C",[22],84.5%
same,"viability, T/C",[23],102%
same,"viability, T/C",[24],72.8%
same,"viability, T/C",[25],75.4%
same,"viability, T/C",[26],90.5%
same,"viability, T/C",[27],67.1%
same,"viability, T/C",[28],77.4%
same,"viability, T/C",[29],80%
same,"viability, T/C",[30],71.5%
same,"viability, T/C",[31],57%
same,"viability, T/C",[32],64.5%
same,"viability, T/C",[33],68.7%
same,"viability, T/C",[34],56.5%
same,"viability, T/C",[35],48.7%
same,"viability, T/C",[36],63%
